Assay results taken from patent publication US9783573B2, “IAP antagonists” (BRISTOL-MYERS SQUIBB COMPANY, priority 2012, dated 2017).
pIC50: −log10 of the molar value.

What was measured:
His-BIR3 (241-356, XIAP) = His-BIR3 (241-356, XIAP) (Homo sapiens (Human), UniProt P98170); experiment: XIAP-BIR3/SMAC Homogeneous Time Resolved Fluorescence (HTRF) Assay; type: binding; conditions: fluorescein labeled SMAC peptide
Protocol: B. XIAP-BIR3/SMAC Homogeneous Time Resolved Fluorescence (HTRF) Assay
(§1) Assays were performed in black, flat-bottom, 384-well plates.

[1] = biological target: His-BIR2-3 (125-356, C202A/C213G, XIAP) (Homo sapiens (Human), UniProt P98170, C202A/C213G); experiment: XIAP-BIR2-3 Dimeric SMAC Peptide Homogeneous Time Resolved Fluorescence (HTRF) Assay; type: binding; conditions: fluorescein labeled dimeric SMAC peptide
Protocol: D. XIAP-BIR2-3 Dimeric SMAC Peptide Homogeneous Time Resolved Fluorescence (HTRF) Assay
as §1

Structure (SMILES): CN[C@@H](C)C(=O)N[C@H](C(=O)N1Cc2cc(C(=O)Nc3nc(C(=O)N[C@H]4C[C@@H](C(=O)N[C@@H]5CCCc6ccccc65)N(C(=O)[C@@H](NC(=O)[C@H](C)NC)C(C)(C)C)C4)co3)ccc2C[C@H]1C(=O)N[C@@H]1CCCc2ccccc21)C(C)(C)C [Example 22, (S)-2-((S)-3,3-Dimethyl-2-((S)-2-(methylamino)propanamido)butanoyl)-N^7-(4-(((3S,5S)-1-((S)-3,3-dimethyl-2-((S)-2-(methylamino)propanamido)butanoyl)-5-(((R)-1,2,3,4-tetrahydronaphthalen-1-yl)carbamoyl)pyrrolidin-3-yl)carbamoyl)oxazol-2-yl)-N^3-((R)-1,2,3,4-tetrahydronaphthalen-1-yl)-1,2,3,4-tetrahydroisoquinoline-3,7-dicarboxamide]
- pIC50 (His-BIR3 (241-356, XIAP)): 7.85
- pIC50 [1]: 8.40

Structure (SMILES): CN[C@@H](C)C(=O)N[C@H](C(=O)N1Cc2cc(C(=O)Nc3ccc4cc(C(=O)N[C@H]5C[C@@H](C(=O)N[C@@H]6CCCc7ccccc76)N(C(=O)[C@@H](NC(=O)[C@H](C)NC)C(C)(C)C)C5)[nH]c4c3)ccc2C[C@H]1C(=O)N[C@@H]1CCCc2ccccc21)C(C)(C)C [Example 24, (S)-2-((S)-3,3-Dimethyl-2-((S)-2-(methylamino)propanamido)butanoyl)-N^7-(2-(((3S,5S)-1-((S)-3,3-dimethyl-2-((S)-2-(methylamino)propanamido)butanoyl)-5-(((R)-1,2,3,4-tetrahydronaphthalen-1-yl)carbamoyl)pyrrolidin-3-yl)carbamoyl)-1H-indol-6-yl)-N^3-((R)-1,2,3,4-tetrahydronaphthalen-1-yl)-1,2,3,4-tetrahydroisoquinoline-3,7-dicarboxamide]
- pIC50 (His-BIR3 (241-356, XIAP)): 7.03
- pIC50 [1]: 7.48

Structure (SMILES): CCN[C@@H](C)C(=O)N[C@H](C(=O)N1Cc2cc(OCc3ccc(C(=O)NC4C[C@@H](C(=O)NC5CCCc6ccccc65)N(C(=O)[C@@H](NC(=O)[C@H](C)NC)C(C)(C)C)C4)cc3)ccc2C[C@H]1C(=O)NC1CCCc2ccccc21)C(C)(C)C (stereo partly drawn) [Example 39]
- pIC50 (His-BIR3 (241-356, XIAP)): 7.05
- pIC50 [1]: 7.19

Structure (SMILES): CN[C@@H](C)C(=O)N[C@H](C(=O)N1Cc2cc(NC(=O)c3ccc4c(ccn4C(=O)N[C@H]4C[C@@H](C(=O)N[C@@H]5CCCc6ccccc65)N(C(=O)[C@@H](NC(=O)[C@H](C)NC)C(C)(C)C)C4)c3)ccc2C[C@H]1C(=O)N[C@@H]1CCCc2ccccc21)C(C)(C)C [Example 49, N^5—((S)-2-((S)-3,3-Dimethyl-2-((S)-2-(methylamino)propanamido)butanoyl)-3-(((R)-1,2,3,4-tetrahydronaphthalen-1-yl)carbamoyl)-1,2,3,4-tetrahydroisoquinolin-7-yl)-N^1-((3S,5S)-1-((S)-3,3-dimethyl-2-((S)-2-(methylamino)propanamido)butanoyl)-5-(((R)-1,2,3,4-tetrahydronaphthalen-1-yl)carbamoyl)pyrrolidin-3-yl)-1H-indole-1,5-dicarboxamide]
- pIC50 (His-BIR3 (241-356, XIAP)): 7.29
- pIC50 [1]: 7.66

Structure (SMILES): CN[C@@H](C)C(=O)N[C@H](C(=O)N1Cc2cc(NC(=O)c3cccc4c3ccn4C(=O)N[C@H]3C[C@@H](C(=O)N[C@@H]4CCCc5ccccc54)N(C(=O)[C@@H](NC(=O)[C@H](C)NC)C(C)(C)C)C3)ccc2C[C@H]1C(=O)N[C@H](C)c1ccccc1F)C(C)(C)C [Example 51]
- pIC50 (His-BIR3 (241-356, XIAP)): 7.27
- pIC50 [1]: 7.57

Structure (SMILES): CN[C@@H](C)C(=O)N[C@H](C(=O)N1Cc2cc(NC(=O)c3cccc4c3ccn4C(=O)N[C@H]3C[C@@H](C(=O)N[C@@H]4CCCc5ccccc54)N(C(=O)[C@@H](NC(=O)[C@H](C)NC)C(C)(C)C)C3)ccc2C[C@H]1C(=O)N[C@@H]1CCCc2ccccc21)C(C)(C)C [Example 54, N^4-((S)-2-((S)-3,3-Dimethyl-2-((S)-2-(methylamino)propanamido)butanoyl)-3-(((R)-1,2,3,4-tetrahydronaphthalen-1-yl)carbamoyl)-1,2,3,4-tetrahydroisoquinolin-7-yl)-N^1-((3S,5S)-1-((S)-3,3-dimethyl-2-((S)-2-(methylamino)propanamido)butanoyl)-5-(((R)-1,2,3,4-tetrahydronaphthalen-1-yl)carbamoyl)pyrrolidin-3-yl)-1H-indole-1,4-dicarboxamide]
- pIC50 (His-BIR3 (241-356, XIAP)): 7.12
- pIC50 [1]: 7.68

Structure (SMILES): CN[C@@H](C)C(=O)N[C@H](C(=O)N1C[C@@H](NC(=O)c2ccc(C(=O)Nc3ccc4c(c3)CN(C(=O)[C@@H](NC(=O)[C@H](C)NC)C(C)(C)SC)[C@H](C(=O)N[C@@H]3CCCc5ccccc53)C4)cc2)C[C@H]1C(=O)N[C@@H]1CCCc2ccccc21)C(C)(C)C [Example 55, N^1-((3S,5S)-1-((S)-3,3-Dimethyl-2-((S)-2-(methylamino)propanamido)butanoyl)-5-(((R)-1,2,3,4-tetrahydronaphthalen-1-yl)carbamoyl)pyrrolidin-3-yl)-N^4—((S)-2-((R)-3-methyl-2-((S)-2-(methylamino)propanamido)-3-(methylthio)butanoyl)-3-(((R)-1,2,3,4-tetrahydronaphthalen-1-yl)carbamoyl)-1,2,3,4-tetrahydroisoquinolin-7-yl)terephthalamide]
- pIC50 (His-BIR3 (241-356, XIAP)): 8.05
- pIC50 [1]: 8.40

Structure (SMILES): CN[C@@H](C)C(=O)N[C@H](C(=O)N1C[C@@H](NC(=O)c2ccc(C(=O)Nc3ccc4c(c3)CN(C(=O)[C@@H](NC(=O)[C@H](C)NC)C(C)(C)SCC(=O)OC)[C@H](C(=O)N[C@@H]3CCCc5ccccc53)C4)cc2)C[C@H]1C(=O)N[C@@H]1CCCc2ccccc21)C(C)(C)C [Example 56, Methyl 2-(((R)-4-((S)-7-(4-(((3S,5S)-1-((S)-3,3-dimethyl-2-((S)-2-(methylamino)propanamido)butanoyl)-5-(((R)-1,2,3,4-tetrahydronaphthalen-1-yl)carbamoyl)pyrrolidin-3-yl)carbamoyl)benzamido)-3-(((R)-1,2,3,4-tetrahydronaphthalen-1-yl)carbamoyl)-3,4-dihydroisoquinolin-2(1H)-yl)-2-methyl-3-((S)-2-(methylamino)propanamido)-4-oxobutan-2-yl)thio)acetate]
- pIC50 (His-BIR3 (241-356, XIAP)): 7.77
- pIC50 [1]: 7.92

Structure (SMILES): CN[C@@H](C)C(=O)N[C@H](C(=O)N1C[C@@H](NC(=O)c2ccc(C(=O)Nc3ccc4c(c3)CN(C(=O)[C@@H](NC(=O)[C@H](C)NC)C(C)(C)SCC(=O)O)[C@H](C(=O)N[C@@H]3CCCc5ccccc53)C4)cc2)C[C@H]1C(=O)N[C@@H]1CCCc2ccccc21)C(C)(C)C [Example 57, 2-(((R)-4-((S)-7-(4-(((3S,5S)-1-((S)-3,3-Dimethyl-2-((S)-2-(methylamino)propanamido)butanoyl)-5-(((R)-1,2,3,4-tetrahydronaphthalen-1-yl)carbamoyl)pyrrolidin-3-yl)carbamoyl)benzamido)-3-(((R)-1,2,3,4-tetrahydronaphthalen-1-yl)carbamoyl)-3,4-dihydroisoquinolin-2(1H)-yl)-2-methyl-3-((S)-2-(methylamino)propanamido)-4-oxobutan-2-yl)thio)acetic acid]
- pIC50 (His-BIR3 (241-356, XIAP)): 8.00
- pIC50 [1]: 8.22

Structure (SMILES): CN[C@@H](C)C(=O)N[C@H](C(=O)N1C[C@@H](NC(=O)c2ccc(C(=O)Nc3ccc4c(c3)CN(C(=O)[C@@H](NC(=O)[C@H](C)NC)C(C)(C)SCC(=O)N3CCCCC3)[C@H](C(=O)N[C@@H]3CCCc5ccccc53)C4)cc2)C[C@H]1C(=O)N[C@@H]1CCCc2ccccc21)C(C)(C)C [Example 58, N^1-((3S,5S)-1-((S)-3,3-Dimethyl-2-((S)-2-(methylamino)propanamido)butanoyl)-5-(((R)-1,2,3,4-tetrahydronaphthalen-1-yl)carbamoyl)pyrrolidin-3-yl)-N^4—((S)-2-((R)-3-methyl-2-((S)-2-(methylamino)propanamido)-3-((2-oxo-2-(piperidin-1-yl)ethyl)thio)butanoyl)-3-(((R)-1,2,3,4-tetrahydronaphthalen-1-yl)carbamoyl)-1,2,3,4-tetrahydroisoquinolin-7-yl)terephthalamide]
- pIC50 (His-BIR3 (241-356, XIAP)): 7.57
- pIC50 [1]: 7.74

Structure (SMILES): CN[C@@H](C)C(=O)N[C@H](C(=O)N1C[C@@H](NC(=O)c2ccc(C(=O)Nc3ccc4c(c3)CN(C(=O)[C@@H](NC(=O)[C@H](C)NC)C(C)(C)SCC(=O)Nc3nccs3)[C@H](C(=O)N[C@@H]3CCCc5ccccc53)C4)cc2)C[C@H]1C(=O)N[C@@H]1CCCc2ccccc21)C(C)(C)C [Example 60, N^1-((3S,5S)-1-((S)-3,3-Dimethyl-2-((S)-2-(methylamino)propanamido)butanoyl)-5-(((R)-1,2,3,4-tetrahydronaphthalen-1-yl)carbamoyl)pyrrolidin-3-yl)-N^4-((S)-2-((R)-3-methyl-2-((S)-2-(methylamino)propanamido)-3-((2-oxo-2-(thiazol-2-ylamino)ethyl)thio)butanoyl)-3-(((R)-1,2,3,4-tetrahydronaphthalen-1-yl)carbamoyl)-1,2,3,4-tetrahydroisoquinolin-7-yl)terephthalamide]
- pIC50 (His-BIR3 (241-356, XIAP)): 7.38
- pIC50 [1]: 7.66

Structure (SMILES): CN[C@@H](C)C(=O)N[C@H](C(=O)N1C[C@@H](NC(=O)c2ccc(C(=O)Nc3ccc4c(c3)CN(C(=O)[C@@H](NC(=O)[C@H](C)NC)C(C)(C)SCC(=O)N3CCOCC3)[C@H](C(=O)N[C@@H]3CCCc5ccccc53)C4)cc2)C[C@H]1C(=O)N[C@@H]1CCCc2ccccc21)C(C)(C)C [Example 61, N^1-((3S,5S)-1-((S)-3,3-Dimethyl-2-((S)-2-(methylamino)propanamido)butanoyl)-5-(((R)-1,2,3,4-tetrahydronaphthalen-1-yl)carbamoyl)pyrrolidin-3-yl)-N^4-((S)-2-((R)-3-methyl-2-((S)-2-(methylamino)propanamido)-3-((2-morpholino-2-oxoethyl)thio)butanoyl)-3-(((R)-1,2,3,4-tetrahydronaphthalen-1-yl)carbamoyl)-1,2,3,4-tetrahydroisoquinolin-7-yl)terephthalamide]
- pIC50 (His-BIR3 (241-356, XIAP)): 7.51
- pIC50 [1]: 7.80
